For one experiment, the system named is PTPN1. The conditions noted are these: read-out: IC50, PTPN1 inhibition (previous reports); cited from earlier work.
A further experiment deals with PTPN2. The conditions noted are these: read-out: KM for PTPN2; cited from earlier work.
Experiment [1] relates to PTP activity in single A431 cells. Description: Single A431 cell PTP activity. The experiment is classed as cell-based, human. The conditions noted are these: single A431 cells pretreated with 1 mM; Q1 = 36%, Q3 = 77%.

Usually IC50 stands for the point on the concentration scale where inhibition reaches its midpoint. Turning to `O=C1C=Cc2ccccc2C1=O` [1,2-naphthoquinone], the IC50 with PTPN1 is 1600 to 5000 nM. As usually defined, the Km is the concentration of substrate that gives half-maximal velocity. For `N[C@@H](Cc1ccc(OP(=O)(O)O)cc1)C(=O)O` [phosphotyrosine], the Km in the experiment on PTPN2 was 300 µM. Consider sodium pervanadate, for which the IC50 with PTPN1 is 400 nM. For the same molecule, the “median phosphorylation remaining in 60 s (inhibition of dephosphorylation)” value in experiment [1] was 53%.

Source of the values: paper PMC3704224 (Analytical chemistry, 2013).
